The results in this text go back to US20200197409A1, “HEPATITIS B VIRUS SURFACE ANTIGEN INHIBITOR” (FUJIAN COSUNTER PHARMACEUTICAL CO., LTD., priority 2017, published 2020).

Usually half-life stands for how long it takes for the measured level to halve. Read a high half-life as slow decline. For orientation: fraction unbound means free concentration divided by total concentration. A lower fraction unbound goes with extensive binding. In general, EC50 refers to the concentration giving half of the maximal effect.

Series [1] can be described thus: Single-dose pharmacokinetic study on rat. It is filed as in vivo, SD rats.
Series [2] is described as follows: Plasma protein binding rate, CD-1 mouse plasma. It is filed as in vitro ADME. Particulars: plasma of CD-1 mouse, dialysis 4 hours at 37° C. On the procedure: (§1) The protein binding rate of Embodiment 6 in the plasma of human, CD-1 mouse and SD rat was determined, 796 μL of blank plasma was taken from human, CD-1 mice and SD rats, and 4 μL of test compound working solution (400 μM) or warfarin working solution (400 μM) was added to achieve a final concentration of the test compound and the warfarin in plasma samples of 2 μM. The samples were mixed thoroughly. The final concentration of organic phase DMSO was 0.5%, 50 μL of the test compound and warfarin plasma sample were transferred into sample receiving plates (three parallels), and a relative volume of corresponding blank plasma or buffer was immediately added, ensuring that the final volume of each sample well was 100 μL, and the volume ratio of plasma to dialysis buffer was 1:1. 400 μL of stop solution was added to these samples, which was used as a T0 sample for the determination of recovery and stability. […] The protein binding rate and the recovery rate were calculated by the formulas: % Protein unbinding rate (%)=100*Drug concentration through the dialysis membrane/drug concentration not through the dialysate: Protein binding rate (%)=100-% protein unbinding rate: % Recovery=100*(Drug concentration through the dialysis membrane+Drug concentration not through the dialysate)/Total drug concentration before undialysis. Protein binding rate and recovery rate were calculated.

Series [3] in a line: Single-dose pharmacokinetic study on mouse. The series is classed as in vivo, C57BL/6 mice.
Series [4] in a line: Plasma protein binding rate, human plasma. Particulars: plasma of human, dialysis 4 hours at 37° C. It is filed as in vitro ADME. As to the method:
as §1

Series [5] is described as follows: 14-day pre-toxicology tolerance test on rat. The series is classed as in vivo. Particulars: once a day for 14 days, male rats. On the procedure:
[table] A total of 21 animals in this experiment were randomly divided into 7 groups. The animals were orally administered with the test compounds once a day for 14 consecutive days, and the toxicity was evaluated. Animal necropsy and tissue would be taken from the fixative, repaired, dehydrated, embedded, sectioned, stained and microscopically examined. These tissues included the liver, heart and lung of all animals, and spleen, stomach, duodenum, jejunum, ileum, and kidney of partial animals.

Another series concerns HBsAg. Particulars: read-out: HBsAg EC50; HepG2.2.15 cells, supernatant on the 8th day. On the procedure:
The HBV DNA content in HepG2.2.15 cells culture supernatant was determined by real-time quantitative qPCR assay (real time-qPCR), and the HBV surface antigen content was determined by enzyme linked immunosorbent assay (ELISA). The inhibitory effect of the compound on HBV was evaluated by the EC50 value of the compound.
2.1 Cell Line: HepG2.2.15 Cells
3.1 HepG2.2.15 cells (4×10^4 cells/well) were seeded into a 96-well plate and incubated overnight at 37° C. under 5% CO2.
3.2 On the 2nd day, the compound was diluted into 8 concentrations with 3-fold gradient. The compounds with different concentrations were added into the culture wells in duplicate wells. The final concentration of DMSO in the culture medium was 0.5%, 10 μM ETV was used as a 100%/inhibition control, and 0.5% DMSO was used as a 0% inhibition control.
3.3 On the 5th day, the culture medium was replaced with a fresh medium containing the compound.
3.4 On the 8th day, the culture medium in the culture well was collected, and a part of the sample was taken for ELISA to determine the content of hepatitis B virus S antigen, a part of the sample was taken to extract DNA with a high-throughput DNA purification kit (Qiagen-51162).
3.8 Determination of hepatitis B virus S antigen content by ELISA
50 μL of sample and standard sample were taken and added into a reaction plate respectively, followed by addition of 50 μL of enzyme conjugate into each well, the mixture was shaken and well-mixed, and placed in a bath at 37° C. for 60 minutes. The plate was then washed with washing solution 5 times, followed by addition of 50 μL of illuminating substrate into each well, the mixture was well-mixed and allowed to react at room temperature for 10 minutes in the dark. Chemiluminescence intensity was determined by a ELISA.
Calculation of the percentage of inhibition:% Inh.=(1−value of sample/value of DMSO control)×100
Calculation of EC50: The 50% inhibitory concentration (EC50) value of the compound on HBV was calculated by GraphPad Prism software.

For the molecule `COCCCOc1cc2c(cc1OC)-c1cc(=O)c(C(=O)O)cn1[C@H](C(C)(C)C)CO2` [Embodiment 6], the values for the Apparent distribution volume in series [1] (IV: 1 mg/kg PO: 2 mg/kg) and in series [3] (IV: 1 mg/kg PO: 2 mg/kg) were 1.72 L/kg and 5.79 L/kg, respectively. The Bioavailability amounted to 71.1% in series [1] (IV: 1 mg/kg PO: 2 mg/kg) and 91.6% in series [3] (IV: 1 mg/kg PO: 2 mg/kg). For the same molecule, the Highest concentration in series [1] (IV: 1 mg/kg PO: 2 mg/kg) amounted to 659 nM; in series [3] (IV: 1 mg/kg PO: 2 mg/kg) it was 1055 nM. Moreover, the half-life in series [1] (male, SD, plasma, IV: 1 mg/kg PO: 2 mg/kg) was 1.98 h; in series [3] (male, C57BL/6, plasma, IV: 1 mg/kg PO: 2 mg/kg) it was 2.46 h. The clearance in series [1] (male, SD, plasma, IV: 1 mg/kg PO: 2 mg/kg, read-out: Clearance rate) stood at 28.1 mL/min/kg; in series [3] (male, C57BL/6, plasma, IV: 1 mg/kg PO: 2 mg/kg, read-out: Clearance rate) it was 75 mL/min/kg. The AUC(0-t) in series [1] (male, SD, plasma, IV: 1 mg/kg, read-out: AUC0-last (Intravenous injection)) is 1.36 µM·h; in series [1] (male, SD, plasma, PO: 2 mg/kg, read-out: AUC0-last (Oral)) it was 1.83 µM·h; in series [3] (male, C57BL/6, plasma, IV: 1 mg/kg, read-out: AUC0-last (Intravenous injection)), 0.502 µM·h; in series [3] (male, C57BL/6, plasma, PO: 2 mg/kg, read-out: AUC0-last (Oral)), 0.876 µM·h. The fraction unbound at 4 h, 2 μM was 0.498 in series [2] and 0.443 in series [4]. For the same molecule, the “histopathological changes associated with the test compound” value in series [5] (high dose group (1000 mg/kg)) is on record as “little or mild decrease of white pulp lymphocytes in the spleen”; in series [5] (medium and low dose groups (300 and 100 mg/kg), heart, liver and lung examined), “no histopathological changes associated with the test compound were observed”. Also, in the series with HBsAg, the EC50 was found to be 3.88 nM.
